Measurements taken from EP0802730B1, “PESTICIDAL COMPOUNDS” (BTG INTERNATIONAL LIMITED, priority 1995, dated 1996).
In brackets after ≈: the same amount, converted by molar mass.

Legend:
[1] = system: Whitefly (BT) (Bemisia tabaci), susceptible strain (SUD-S); test: Whitefly residual film vial test, susceptible strain SUD-S; assay type: in vivo; settings: 48 h, Tables 10, 13, 14, susceptible strain, NA = lack of detectable activity, read-out: BT LC50 (ppm/insect)
Protocol: Acetone solutions (0.100 ml) of the test compounds were placed in 10 ml glass vials and evaporated with rotation to deposit a film of the compound. Thirty adult whiteflies were placed inside the vial, then after 60 minutes, the treated insects were transferred onto untreated cotton leaf discs which were kept moist on a bed of agar gel. The temperature was maintained at 25°C and mortality assessed after 48 hours. Three replicates were used at each of 5 to 7 dose levels per compound.

[2] = system: Mites (TU) (Tetranychus urticae), susceptible strain (GSS); test: Mite immersion test, susceptible strain GSS; assay type: in vivo; settings: 72 h, Tables 10, 13, 14, susceptible strain, NA = lack of detectable activity, read-out: TU LC50 (ppm/insect)
Protocol: 25 adult female mites were immersed in 35 µl of a solution of the test compound in a 1:4 acetone-water mixture for 30 seconds. The treated insects were maintained at 21° ± 2°C and kill was assessed 72 hours after treatment. […] Three replicates of 25 mites each were used at each dose rate and 5 or 6 dose rates were used per compound under test. LC50 values were calculated in ppm of the solution of the test compound per insect. The test was carried out using a susceptible strain of mites (GSS) supplied by Schering, AG, Berlin.

[3] = system: Mustard beetles (PC) (Phaedon cochleariae Fab); assay type: in vivo; settings: Tables 10, 13, 14; NA = lack of detectable activity
Protocol: A one microlitre drop of an acetone solution of the test compound was applied ventrally to adult mustard beetles using a micro drop applicator. The treated insects were maintained for 48 hours after which time kill was assessed. Two replicates each of 20 to 25 mustard beetles were used at each dose level and 5 dose levels were treated comparably. LD50 values were calculated as for houseflies.

[4] = system: Houseflies (MD) (Musca domestica); assay type: in vivo; settings: Tables 10, 13, 14; NA = lack of detectable activity
Protocol: Female flies were treated on the thorax with a one microlitre drop of test compound dissolved in acetone. Two replicates of 15 flies were used at each dose rate and 6 dose rates were used per compound under test. After treatment, the flies were maintained at a temperature of 20° ± 1°C and kill was assessed 24 and 48 hours after treatment. LD50 values were calculated in micrograms of test compound per fly (see Sawicki et al., Bulletin of the World Health Organisation, 35, 893 (1966) and Sawicki et al., Entomologia and Exp. Appli 10, 253, (1967).

[5] = system: Myzus persicae, susceptible strain (US1L); test: Aphid dip test, susceptible strain; assay type: in vivo; settings: read-out: MP % kill 100 ppm
Protocol: Activity against resistant (R) and susceptible (S) strains of aphid (Myzus persicae) was assessed using the following method.
Entrapment rings of fluon were painted halfway up the inside of 4 cm lengths of glass tubing (1.5 cm diameter), and squares of insect-proof gauze were attached to one end of each tube by elastic bands. Fifteen apterous adults were then gently transferred into the tubes using a sable-hair brush, and the tube sealed with a second gauze square.
Tubes containing aphids were dipped into insecticide solutions for 10 seconds, dried on blotting paper, and then inverted and tapped to cause treated aphids to fall to the unimmersed end of each tube. Handling mortality (usually zero or very slight) was scored after 1 hour, when aphids were transferred onto chinese cabbage leaf-discs (35 mm diameter) on an agar bed (25 mm in depth) in disposible plastic containers (30 mm high) and confined by applying a ring of fluon to the exposed lip of the container. Containers were store upright, without lids, in a constant environment facility maintained at 25°C under continuous room lighting. Mortality was assessed at 24, 48 and 72 hours. Two replicates of 15 aphids each were used at each dose rate and 5 or 6 dose rates were used per compound under test.
The test was carried out using a susceptible strain of aphids (US1L) collected in the field in East Anglia, UK and an extremely resistant strain of aphids (794Jz) (R3 esterase, sensitive AChE) collected from glasshouses in the UK.
The values given are % mortality corrected for control data. The control comprised the test solution without active ingredient.

[6] = system: Pyricularia oryzae (=Magnaporthe grisea); assay type: cell-based; settings: P. oryzae, 7 days
Rhizoctonia solani = test: Fungitoxicity in vitro on potato dextrose agar; assay type: cell-based; settings: R. solani, 4 days
Aspergillus niger = test: Fungitoxicity in vitro on potato dextrose agar; assay type: cell-based; settings: A. niger; 1 mg 1^-1; 4 days

With CCCCCCC1=C(O)C(=O)c2ccccc2C1=O [-(CH2)5CH3, reference compound] the LC50 [1] was 9.4 µg/mL (≈ 36.4 µM), the LC50 [2] was 170 µg/mL (≈ 658 µM) and the “PC LD50 (µg/insect)” value [3] was “c7 µg/insect”. For the same molecule, the “MD LD50 (µg/insect)” value [4] was “c20 µg/insect” and the mortality at 100 ppm [5] was 0%.
COC(=O)Nc1nc2ccccc2[nH]1 [Carbendazim, carbendazim, reference compound] was tested, and the “% inhibition of growth in colony diameter in agar plates, Activity at 1 mg 1^-1” value (shortened to “% inhibition of growth … at 1 mg 1^-1”) ([6]; 1 mg 1^-1) was 14.7%, the “% inhibition of growth in colony diameter in agar plates, Activity at 5 mg 1^-1” value ([6]; 5 mg 1^-1) was 99.8% and the “% inhibition of growth … at 1 mg 1^-1” value (Rhizoctonia solani; 1 mg 1^-1) was 3.3%. For the same molecule, the “% inhibition of growth in colony diameter in agar plates, Activity at 5 mg 1^-1” value (Rhizoctonia solani; 5 mg 1^-1) was 82.4%.
For CC1(C2=C(O)C(=O)c3ccccc3C2=O)C=CCCC1 (stereo not shown) [Example 31], the LC50 [1] was 4.7 µg/mL (≈ 17.5 µM), the LC50 [2] was ~50 µg/mL (≈ 186 µM) and the “PC LD50 (µg/insect)” value [3] was 5 µg/insect. For the same molecule, the “MD LD50 (µg/insect)” value [4] was 6 µg/insect and the mortality at 100 ppm [5] was 5%.
CC1(CC2=C(O)C(=O)c3ccccc3C2=O)CCCCC1 [Example 32, 2-hydroxy-3-((1'methylcyclohexyl)-methyl)-naphthalene-1,4-dione] was tested, and the LC50 [1] was 3.6 µg/mL (≈ 12.7 µM), the LC50 [2] was 2.9 µg/mL (≈ 10.2 µM) and the “PC LD50 (µg/insect)” value [3] was <2 µg/insect. The “MD LD50 (µg/insect)” value [4] was 3.6 µg/insect and the mortality at 100 ppm [5] was 50%.
For CC(=O)OC1=C(CC2(C)CCCCC2)C(=O)c2ccccc2C1=O [Example 33, 2-acetoxy-3-((1'-methylcyclohexyl)-methyl)-naphthalene-1,4-dione], the LC50 [1] was 5.1 µg/mL (≈ 15.6 µM), the LC50 [2] was 2.3 µg/mL (≈ 7.05 µM) and the “PC LD50 (µg/insect)” value [3] was 2.8 µg/insect. The “MD LD50 (µg/insect)” value [4] was 5.7 µg/insect and the mortality at 100 ppm [5] was 30%.
In the case of CC(C)(C)CCCCC1=C(O)C(=O)c2ccccc2C1=O [Example 38, 2-(5,5-dimethylhexyl)-3-hydroxy-naphthalene-1,4-dione], the LC50 [1] is reported as ~60 µg/mL (≈ 210 µM), the LC50 [2] is reported as 3.5 µg/mL (≈ 12.2 µM) and the “PC LD50 (µg/insect)” value [3] is reported as “c8 µg/insect”. The “MD LD50 (µg/insect)” value [4] was 5.3 µg/insect and the mortality at 100 ppm [5] was ~100%.
CC(C)(C)CCCCCC1=C(O)C(=O)c2ccccc2C1=O [Example 39] was tested, and the LC50 [1] was 21 µg/mL (≈ 69.9 µM), the LC50 [2] was 9.6 µg/mL (≈ 32 µM) and the “MD LD50 (µg/insect)” value [4] was “c5 µg/insect”. It also gave a mortality at 100 ppm [5] of ~100%.
In the case of CC(C)(C)CCCCCCC1=C(O)C(=O)c2ccccc2C1=O [Example 40], the LC50 [1] is reported as 13 µg/mL (≈ 41.3 µM), the LC50 [2] is reported as 5 µg/mL (≈ 15.9 µM) and the “MD LD50 (µg/insect)” value [4] is reported as “c5 µg/insect”. It also gave a mortality at 100 ppm [5] of ~100%.
With CC(C)(C)C=CCCCCC1=C(O)C(=O)c2ccccc2C1=O [Example 44, 2-(7,7-dimethyloct-5-enyl)-3-hydroxy-naphthalene-1,4-dione] the LC50 [1] was ~100 µg/mL (≈ 320 µM), the LC50 [2] was 4.3 µg/mL (≈ 13.8 µM) and the “MD LD50 (µg/insect)” value [4] was “c10 µg/insect”. For the same molecule, the mortality at 100 ppm [5] was ~100%.
In the case of CC(=O)OC1=C(C(C)(C)C)C(=O)c2ccccc2C1=O [Example 46], the LC50 [2] is reported as ~500 µg/mL (≈ 1840 µM), the “PC LD50 (µg/insect)” value [3] is reported as “c15 µg/insect” and the “MD LD50 (µg/insect)” value [4] is reported as 2.3 µg/insect. The mortality at 100 ppm [5] was ~60%.
CC(=O)OC1=C(CCC(C)(C)C)C(=O)c2ccccc2C1=O [Example 47, 2-ethanoyloxy-3-(3,3-dimethylbutyl)-naphthalene-1,4-dione] was tested, and the LC50 [1] was 2.1 µg/mL (≈ 6.99 µM), the LC50 [2] was ~20 µg/mL (≈ 66.6 µM) and the “PC LD50 (µg/insect)” value [3] was “c1 µg/insect”. For the same molecule, the “MD LD50 (µg/insect)” value [4] was 2.2 µg/insect and the mortality at 100 ppm [5] was ~100%.
In the case of CC(=O)OC1=C(CCCCCCC=CCC(C)(C)C)C(=O)c2ccccc2C1=O [Example 49, 2-ethanoyoxy-3-(10,10-dimethylundecan-7-enyl)-naphthalene-1,4-dione], the LC50 [2] is reported as 2.3 µg/mL (≈ 5.8 µM), the “PC LD50 (µg/insect)” value [3] is reported as “c10 µg/insect” and the “MD LD50 (µg/insect)” value [4] is reported as “c18 µg/insect”. It also gave a mortality at 100 ppm [5] of ~15%.
For CCCN(CCOc1c(Cl)cc(Cl)cc1Cl)C(=O)n1ccnc1 [Prochloraz, prochloraz, reference compound], the “% inhibition of growth … at 1 mg 1^-1” value (Aspergillus niger) was 97.8%.
